The text below walks through data of US20240123073A1, “NOVEL RIPK1 KINASE TARGETING PROTACS AND METHODS OF USE THEREOF” (Baylor College of Medicine, priority 2020, published 2024).

The assay has as its target T1, RIPK1 (Homo sapiens, UniProt Q13546).
T1 construct: endogenous in cells
T1 sequence (Q13546 1-671): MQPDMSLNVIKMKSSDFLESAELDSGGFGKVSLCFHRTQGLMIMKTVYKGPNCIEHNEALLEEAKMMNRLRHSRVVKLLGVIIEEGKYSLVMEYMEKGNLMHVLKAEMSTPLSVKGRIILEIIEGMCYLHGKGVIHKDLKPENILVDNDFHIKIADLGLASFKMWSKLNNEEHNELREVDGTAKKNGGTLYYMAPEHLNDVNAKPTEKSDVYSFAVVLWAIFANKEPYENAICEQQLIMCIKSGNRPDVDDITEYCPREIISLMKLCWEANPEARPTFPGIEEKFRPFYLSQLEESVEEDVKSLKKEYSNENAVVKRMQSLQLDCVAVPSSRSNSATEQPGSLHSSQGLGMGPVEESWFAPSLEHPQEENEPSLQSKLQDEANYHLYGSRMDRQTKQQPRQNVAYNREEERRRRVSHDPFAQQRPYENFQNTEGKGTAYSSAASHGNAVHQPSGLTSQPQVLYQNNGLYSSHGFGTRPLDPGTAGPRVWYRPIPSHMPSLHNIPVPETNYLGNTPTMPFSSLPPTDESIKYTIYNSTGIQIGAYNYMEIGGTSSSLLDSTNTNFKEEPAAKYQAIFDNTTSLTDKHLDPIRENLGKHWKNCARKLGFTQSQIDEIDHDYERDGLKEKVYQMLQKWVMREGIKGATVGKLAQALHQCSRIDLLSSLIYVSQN
The assay can be described thus: RIPK1 degradation Western Blot assay. The format is cell-based. To be noted: human cells, 24 h incubation at 37° C., read-out: Degradation Activity (DC50, concentration at which 50% of RIPK1 kinase has been degraded). How it is done: Cells were seeded in 6-well cell culture plates overnight prior to treatment and incubated with the indicated doses of compounds for 24 h at 37° C. Then, cell pellets were collected and resuspended with RIPA lysis buffer, which was added with 1% […] inhibitor and phosphatase inhibitor Cocktail. Whole-cell protein lysates were sonicated on ice for 20 seconds and centrifuged at 12 000 rpm for 20 min at 4° C. The supernatants were determined using the BCA method. Proteins were separated by sodium dodecyl sulfate-polyacrylamide gel electrophoresis and transferred to polyvinylidene fluoride membranes. The membranes were incubated with blocking buffer for 1 h. Then, the membranes were incubated at 4° C. overnight with the primary antibodies. After washing, the membranes were incubated for 1 h at room temperature with the secondary antibody and washed again. Changes in protein expression was detected using an enhanced chemiluminescence detection reagent. RIPK1 antibody was purchased from Santa Cruz.
The activities of exemplary compounds as described herein, measured in terms of the degradation concentration (DC50 representing the concentration at which 50% of the target, in this case RIPK1 kinase, has been degraded), are provided in Table 11. In Table 11, a DC50 value less than 1 μM is indicated as an “A;” a DC50 value from 1 μM to 10 μM is indicated as a “B” and a DC50 value of greater than 10 μM is indicated as a “C.”
(In general: A western blot detects proteins with antibodies after separation by electrophoresis.)

Turning to `Cc1ncsc1-c1ccc([C@H](CC(=O)NCCCCCCCCC(=O)NCCCn2cc(-c3ccc4c(c3)CCN4C(=O)Cc3cccc(OC(F)(F)F)c3)c3c(N)ncnc32)NC(=O)[C@@H]2C[C@@H](O)CN2C(=O)[C@H](NC(=O)C2(F)CC2)C(C)(C)C)cc1` [Compound 40, (2S,4R)—N—((S)-3-((9-((3-(4-amino-5-(1-(2-(3-(trifluoromethoxy)phenyl)acetyl)indolin-5-yl)-7H-pyrrolo[2,3-d]pyrimidin-7-yl)propyl)amino)-9-oxononyl)amino)-1-(4-(4-methylthiazol-5-yl)phenyl)-3-oxopropyl)-1-((R)-2-(1-fluorocyclopropane-1-carboxamido)-3,3-dimethylbutanoyl)-4-hydroxypyrrolidine-2-carboxamide], the DC50 is less than 1000 nM.
Take `Cc1ncsc1-c1ccc([C@H](CC(=O)N2CCC(N3CCC(C#Cc4ccc(C(=O)NCCCn5cc(-c6ccc7c(c6)CCN7C(=O)Cc6cccc(OC(F)(F)F)c6)c6c(N)ncnc65)cc4)CC3)CC2)NC(=O)[C@@H]2C[C@@H](O)CN2C(=O)[C@@H](NC(=O)C2(F)CC2)C(C)(C)C)cc1` [Compound 45]: the DC50 is less than 1000 nM.
As for `Cc1ncsc1-c1ccc([C@H](CC(=O)N2CCN(c3ccc(C#Cc4ccc(C(=O)NCCCn5cc(-c6ccc7c(c6)CCN7C(=O)Cc6cccc(OC(F)(F)F)c6)c6c(N)ncnc65)cc4)cn3)CC2)NC(=O)[C@@H]2C[C@@H](O)CN2C(=O)[C@@H](NC(=O)C2(F)CC2)C(C)(C)C)cc1` [Compound 46], the DC50 is less than 1000 nM.
The same measure for `Cc1ncsc1-c1ccc([C@H](CC(=O)N2CCC(N3CCN(c4ccc(C#Cc5ccc(C(=O)NCCCn6cc(-c7ccc8c(c7)CCN8C(=O)Cc7cccc(OC(F)(F)F)c7)c7c(N)ncnc76)cc5)cn4)CC3)CC2)NC(=O)[C@@H]2C[C@@H](O)CN2C(=O)[C@@H](NC(=O)C2(F)CC2)C(C)(C)C)cc1` [Compound 47]: more than 10000 nM; for `Nc1ncnc2c1c(-c1ccc3c(c1)CCN3C(=O)Cc1cccc(OC(F)(F)F)c1)cn2CCCNC(=O)CCCCNC(=O)CN1CCC(c2ccc(NC3CCC(=O)NC3=O)cc2)CC1` (centres unmarked) [Compound 62]: less than 1000 nM.
The same measure for `Nc1ncnc2c1c(-c1ccc3c(c1)CCN3C(=O)Cc1cccc(OC(F)(F)F)c1)cn2CCCNC(=O)c1ccc(C#CC2CCN(C3CCN(C(=O)CN4CCC(c5ccc(NC6CCC(=O)NC6=O)cc5)CC4)CC3)CC2)cc1` (centres unmarked) [Compound 66]: less than 1000 nM.
Turning to `Nc1ncnc2c1c(-c1ccc3c(c1)CCN3C(=O)Cc1cccc(OC(F)(F)F)c1)cn2CCCNC(=O)c1ccc(C#Cc2ccc(N3CCN(C(=O)CN4CCC(c5ccc(NC6CCC(=O)NC6=O)cc5)CC4)CC3)nc2)cc1` (centres unmarked) [Compound 67], the DC50 is less than 1000 nM.
With `Nc1ncnc2c1c(-c1ccc3c(c1)CCN3C(=O)Cc1cccc(OC(F)(F)F)c1)cn2CCCNC(=O)c1ccc(C#Cc2ccc(N3CC4(CN(C(=O)CN5CCC(c6ccc(NC7CCC(=O)NC7=O)cc6)CC5)C4)C3)nc2)cc1` (centres unmarked) [Compound 68], the DC50 is less than 1000 nM.
Turning to `Nc1ncnc2c1c(-c1ccc3c(c1)CCN3C(=O)Cc1cccc(OC(F)(F)F)c1)cn2CCCNC(=O)c1ccc(C#CC2CCN(C(=O)CN3CCC(c4ccc(NC5CCC(=O)NC5=O)cc4)CC3)CC2)cc1` (centres unmarked) [Compound 69], the DC50 lay in the range of 1000 to 10000 nM.
With `Cc1ncsc1-c1ccc([C@H](C)NC(=O)[C@@H]2C[C@@H](O)CN2C(=O)[C@@H](NC(=O)CCCCCCCCNC(=O)c2ccc(-c3cc(N4CCC(C(=O)N5N=CCC5c5ccccc5)CC4)ncn3)cc2)C(C)(C)C)cc1` (some centres unmarked) [Compound 77], the DC50 was more than 10000 nM.
For the compound `Cn1c(=O)n(C2CCC(=O)NC2=O)c2ccc(CCC(=O)N3CCC(N4CCC(C#Cc5ccc(C(=O)NCCCn6cc(-c7ccc8c(c7)CCN8C(=O)Cc7cccc(OC(F)(F)F)c7)c7c(N)ncnc76)cc5)CC4)CC3)cc21` (centres unmarked) [Compound 78], the DC50 is less than 1000 nM.
The same measure for `Cn1c(=O)n(C2CCC(=O)NC2=O)c2ccc(CCC(=O)N3CCN(c4ccc(C#Cc5ccc(C(=O)NCCCn6cc(-c7ccc8c(c7)CCN8C(=O)Cc7cccc(OC(F)(F)F)c7)c7c(N)ncnc76)cc5)cn4)CC3)cc21` (centres unmarked) [Compound 79]: less than 1000 nM.
As for `Cn1c(=O)n(C2CCC(=O)NC2=O)c2ccc(CCC(=O)N3CCC(C#Cc4ccc(C(=O)NCCCn5cc(-c6ccc7c(c6)CCN7C(=O)Cc6cccc(OC(F)(F)F)c6)c6c(N)ncnc65)cc4)CC3)cc21` (centres unmarked) [Compound 80], the DC50 is less than 1000 nM.
`Cn1c(=O)n(C2CCC(=O)NC2=O)c2ccc(CCC(=O)c3ccc(C#Cc4ccc(C(=O)NCCCn5cc(-c6ccc7c(c6)CCN7C(=O)Cc6cccc(OC(F)(F)F)c6)c6c(N)ncnc65)cc4)cn3)cc21` (centres unmarked) [Compound 81]: the DC50 is less than 1000 nM.
